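The concentration for 50% growth inhibition is given as GI50. TGI marks complete inhibition of growth.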
Columns and labels:
Experiment in all cases: NCI-60 cell line screen, 384-well format
SNB-19 CNS = test system: SNB-19 CNS
BT-549 breast = test system: BT-549 breast
SF-295 CNS = test system: SF-295 CNS
A498 renal = test system: A498 renal
786-0 renal = test system: 786-0 renal
SK-MEL-5 melanoma = test system: SK-MEL-5 melanoma
OVCAR-5 ovarian = test system: OVCAR-5 ovarian
SF-539 CNS = test system: SF-539 CNS
SF-268 CNS = test system: SF-268 CNS
SK-MEL-28 melanoma = test system: SK-MEL-28 melanoma
TK-10 renal = test system: TK-10 renal
CCRF-CEM leukemia = test system: CCRF-CEM leukemia
DU-145 prostate = test system: DU-145 prostate
MCF7 breast = test system: MCF7 breast
HOP-92 NSCLC = test system: HOP-92 NSCLC
NCI-H226 lung = test system: NCI-H226 lung
RPMI-8226 leukemia = test system: RPMI-8226 leukemia
T-47D breast = test system: T-47D breast
NCI-H322M lung = test system: NCI-H322M lung
M14 melanoma = test system: M14 melanoma
IGROV1 ovarian = test system: IGROV1 ovarian
NCI-H522 lung = test system: NCI-H522 lung
SN12C renal = test system: SN12C renal
LOX IMVI melanoma = test system: LOX IMVI melanoma
U251 glioblastoma = test system: U251 glioblastoma
HCT-15 colon = test system: HCT-15 colon
OVCAR-4 ovarian = test system: OVCAR-4 ovarian
HS 578T breast = test system: HS 578T breast
HOP-62 NSCLC = test system: HOP-62 NSCLC
HCT-116 colon = test system: HCT-116 colon
SNB-75 CNS = test system: SNB-75 CNS
KM12 colon = test system: KM12 colon
SR leukemia = test system: SR leukemia
MDA-MB-468 breast = test system: MDA-MB-468 breast
OVCAR-3 ovarian = test system: OVCAR-3 ovarian
NCI-H23 lung = test system: NCI-H23 lung
MOLT-4 leukemia = test system: MOLT-4 leukemia
OVCAR-8 ovarian = test system: OVCAR-8 ovarian
MDA-MB-231 breast = test system: MDA-MB-231 breast
A549 NSCLC = test system: A549 NSCLC
NCI-H460 NSCLC = test system: NCI-H460 NSCLC
EKVX NSCLC = test system: EKVX NSCLC
PC-3 prostate = test system: PC-3 prostate
UACC-257 melanoma = test system: UACC-257 melanoma
COLO 205 colon = test system: COLO 205 colon
MALME-3M melanoma = test system: MALME-3M melanoma
SW-620 colon = test system: SW-620 colon
UO-31 renal = test system: UO-31 renal
HT29 colon = test system: HT29 colon
MDA-MB-435 melanoma = test system: MDA-MB-435 melanoma
HCC-2998 colon = test system: HCC-2998 colon
HL-60(TB) leukemia = test system: HL-60(TB) leukemia
ACHN renal = test system: ACHN renal
RXF 393 renal = test system: RXF 393 renal
NCI/ADR-RES ovarian = test system: NCI/ADR-RES ovarian
CAKI-1 renal = test system: CAKI-1 renal
K-562 leukemia = test system: K-562 leukemia
SK-OV-3 ovarian = test system: SK-OV-3 ovarian

O=C(NO)c1ccc(CN(c2cnccn2)c2cnccn2)cc1
GI50 (SNB-19 CNS): 13 µM
TGI (SNB-19 CNS): 26.6 µM
GI50 (BT-549 breast): 11.5 µM
TGI (BT-549 breast): 24.1 µM
GI50 (SF-295 CNS): 2.62 µM
TGI (SF-295 CNS): 6.48 µM
GI50 (A498 renal): 11.9 µM
TGI (A498 renal): 25.8 µM
GI50 ([…]-0 renal): 14.5 µM
TGI (786-0 renal): 27.8 µM
GI50 (SK-MEL-5 melanoma): 4.27 µM
TGI (SK-MEL-5 melanoma): 12.8 µM
GI50 (OVCAR-5 ovarian): 11 µM
TGI (OVCAR-5 ovarian): 31.2 µM
GI50 (SF-539 CNS): 2.95 µM
TGI (SF-539 CNS): 10.6 µM
GI50 (SF-268 CNS): 8.01 µM
TGI (SF-268 CNS): 20.9 µM
GI50 (SK-MEL-28 melanoma): 2.93 µM
TGI (SK-MEL-28 melanoma): 7.33 µM
GI50 (TK-10 renal): 12.9 µM
TGI (TK-10 renal): 26.4 µM
GI50 (CCRF-CEM leukemia): 2.32 µM
TGI (CCRF-CEM leukemia): 4.28 µM
GI50 (DU-145 prostate): 3.71 µM
TGI (DU-145 prostate): 13.1 µM
GI50 (MCF7 breast): 4.65 µM
TGI (MCF7 breast): 19.4 µM
GI50 (HOP-92 NSCLC): 11.9 µM
TGI (HOP-92 NSCLC): 24.5 µM
GI50 (NCI-H226 lung): 12.4 µM
TGI (NCI-H226 lung): 25.1 µM
GI50 (RPMI-8226 leukemia): 1.35 µM
TGI (RPMI-8226 leukemia): 2.81 µM
GI50 (T-47D breast): 5.59 µM
TGI (T-47D breast): 17.6 µM
GI50 (NCI-H322M lung): 9.66 µM
TGI (NCI-H322M lung): 22.4 µM
GI50 (M14 melanoma): 3.93 µM
TGI (M14 melanoma): 14.3 µM
GI50 (IGROV1 ovarian): 11.8 µM
TGI (IGROV1 ovarian): 24.1 µM
GI50 (NCI-H522 lung): 4.84 µM
TGI (NCI-H522 lung): 16.2 µM
GI50 (SN12C renal): 14.7 µM
TGI (SN12C renal): 28.1 µM
GI50 (LOX IMVI melanoma): 7.46 µM
TGI (LOX IMVI melanoma): 19.8 µM
GI50 (U251 glioblastoma): 4.7 µM
TGI (U251 glioblastoma): 15.6 µM
GI50 (HCT-15 colon): 11.7 µM
TGI (HCT-15 colon): 24.3 µM
GI50 (OVCAR-4 ovarian): 5.94 µM
TGI (OVCAR-4 ovarian): 19 µM
GI50 (HS 578T breast): 10.5 µM
TGI (HS 578T breast): 22.4 µM
GI50 (HOP-62 NSCLC): 12.4 µM
TGI (HOP-62 NSCLC): 25.5 µM
GI50 (HCT-116 colon): 3.01 µM
TGI (HCT-116 colon): 11.2 µM
GI50 (SNB-75 CNS): 5.98 µM
TGI (SNB-75 CNS): 18.2 µM
GI50 (KM12 colon): 3.31 µM
TGI (KM12 colon): 12.3 µM
GI50 (SR leukemia): 1.77 µM
TGI (SR leukemia): 3.87 µM
GI50 (MDA-MB-468 breast): 2.49 µM
TGI (MDA-MB-468 breast): 10 µM
GI50 (OVCAR-3 ovarian): 3.27 µM
TGI (OVCAR-3 ovarian): 12.2 µM
GI50 (NCI-H23 lung): 2.01 µM
TGI (NCI-H23 lung): 3.96 µM
GI50 (MOLT-4 leukemia): 1.92 µM
TGI (MOLT-4 leukemia): 3.52 µM
GI50 (OVCAR-8 ovarian): 1.81 µM
TGI (OVCAR-8 ovarian): 3.86 µM
GI50 (MDA-MB-231 breast): 15.7 µM
TGI (MDA-MB-231 breast): 29.4 µM
GI50 (A549 NSCLC): 13.8 µM
TGI (A549 NSCLC): 27.1 µM
GI50 (NCI-H460 NSCLC): 10.2 µM
TGI (NCI-H460 NSCLC): 22.1 µM
GI50 (EKVX NSCLC): 7.91 µM
TGI (EKVX NSCLC): 20.2 µM
GI50 (PC-3 prostate): 7.66 µM
TGI (PC-3 prostate): 20.9 µM
GI50 (UACC-257 melanoma): 5.02 µM
TGI (UACC-257 melanoma): 17.8 µM
GI50 (COLO 205 colon): 3.36 µM
TGI (COLO 205 colon): 8.11 µM
GI50 (MALME-3M melanoma): 3.38 µM
TGI (MALME-3M melanoma): 12.6 µM
GI50 (SW-620 colon): 10.6 µM
TGI (SW-620 colon): 22.7 µM
GI50 (UO-31 renal): 13.5 µM
TGI (UO-31 renal): 26.6 µM
GI50 (HT29 colon): 15.6 µM
TGI (HT29 colon): 29.7 µM
GI50 (MDA-MB-435 melanoma): 4.96 µM
TGI (MDA-MB-435 melanoma): 15 µM
GI50 (HCC-2998 colon): 12 µM
TGI (HCC-2998 colon): 24.4 µM
GI50 (HL-60(TB) leukemia): 7.18 µM
TGI (HL-60(TB) leukemia): 18.9 µM
GI50 (ACHN renal): 11.2 µM
TGI (ACHN renal): 23.8 µM
GI50 (RXF 393 renal): 3.83 µM
TGI (RXF 393 renal): 14.2 µM
GI50 (NCI/ADR-RES ovarian): 4.36 µM
TGI (NCI/ADR-RES ovarian): 15.1 µM
GI50 (CAKI-1 renal): 12.4 µM
TGI (CAKI-1 renal): 26 µM
GI50 (K-562 leukemia): 7.51 µM
TGI (K-562 leukemia): 20.2 µM
GI50 (SK-OV-3 ovarian): 12.2 µM
TGI (SK-OV-3 ovarian): 25.1 µM
